{"source": "patent US20010044151A1", "about": "“Ligands for modulating the expression of exogenous genes via an ecdysone receptor complex” (priority 1998, published 2001)", "key": {"Spodoptera exigua": {"test_system": "Spodoptera exigua", "test": "Translaminar movement into cotton leaves, mortality of neonate beet armyworm larvae", "format": "in vivo", "conditions": "versus CE-1", "experimental": "A study was conducted to evaluate translaminar movement of two compounds into cotton leaves using neonate beet armyworm larvae, Spodoptera exigua, as the model system.\nTwo treatments were evaluated: emulsifiable concentrates of CE-1 and Ligand 3 (5% and 19%, respectively), at a concentration of 100 μg/ml to simulate spray tank concentrations. These treatments were then compared with plants treated with a chemical standard known to have excellent translaminar movement (emamectin benzoate, 0.16% EC [20 μg/ml], Merck & Co.) and with nontreated plants.\nFour-week-old cotton, Gossypium hirsutum L. ev. Stoneville, plants were treated with each treatment by painting the top surface of a single replicate leaf/plant with a corresponding treatment. Plants were held in a controlled environment glasshouse maintained at 27° C. until needed. Residual effectiveness was evaluated by challenging treated and nontreated foliage with neonate beet armyworm larvae, Spodoptera exigua (Hubner), on 3 dates: 1, 7 and 14 days after treatment (DAT). On each sample date, the single treated leaf/plant was excised from each of five replicate plants per treatment. […] Mortality of larvae was recorded 4 days after infestation. […]\nPercentage mortality data were transformed to the arcsine of the square-root and then analyzed by ANOVA using JMP (Ver. 3.2.1). […]"}, "[1]": {"target": "CfEcR(CDEF)-GST and CfUSP-GST fusion proteins", "test": "Competitive 3H-ponasterone A binding assay, bacterial GST fusion proteins", "parameters": "species or system Choristoneura fumiferana", "conditions": "bacterial CfEcR(CDEF)-GST/CfUSP-GST extracts, 3H-ponasterone A displacement", "source_text": "Bacterial glutathion-S-transferase (GST) fusion proteins of the spruce budworm (Choristoneura fumiferana) EcR (CfEcR), containing CDEF domains only, and ultraspiracle protein (CfUSP) were also used in radioligand displacement assays. cDNA encoding the CDEF domains of CfEcR were constructed following PCR amplification using primers that contain BamH1 and EcoRI sites (Perera S C, M Sundaram, Krell P J, Retnakaran A, Dhadialla T S, S R Palli, 1999 Arch. Insect Biochem. Physiol. 41 In Press). The PCR produce was digested with BamHI and EcoRI and cloned into pGEX-3X vector obtained from Pharmacia Biotech. CfUSP coding region was amplified using primers that contain BamH1 and EcoRI sites and cloned into to pGEX-2T vector obtained from Pharmacia Biotech. E. coli transformed with each of the two vectors were grown and induced to produce the fusion proteins as detailed in the Pharmacia Biotech GST-technical bulletin.\nThe concentrations of competitors that inhibited 50% of tritiated ponasterone A binding (IC50) was determined by incubating Kc or Plodia nuclear extracts or extracts of bacteria producing CfEcR(CDEF)-GST and CfUSP-GST fusions proteins with ^3H-ponasterone A (66,000 dpm per reaction) in the presence of a range of concentrations (0.1 nM to 10 μM) of test compounds. In the case of binding reactions using bacterial fusion proteins, 20 or one μl extract of bacteria producing CfEcR(CDEF)-GST or CfUSP-GST fusion proteins, respectively, were included per binding reaction. The assay conditions and determination of total and non-specific binding was as described above. The volume of competitor in solvent, like that for 20E or solvent alone, was kept at 1% of total reaction volume by using a 100 fold concentrated stock solution (i.e. a 100 fold dilution of stock solutions). The remainder of the assay was as described above. Each reaction was carried out in duplicate per concentration per test compound. […]"}}, "data": [{"compound": "COc1cccc(C(=O)NN(C(=O)c2cc(C)cc(C)c2)C(C)(C)C)c1C", "note": "[Ligand 3]", "values": [{"measurement": "Effectiveness at killing S. exigua larvae from translaminar movement (comparison in words)", "setting": "Spodoptera exigua", "result": "significantly more effective than CE-1"}, {"measurement": "Bacterial CfECR log(1/IC50)", "setting": "[1]", "result": 8.76}]}]}
